In ChEMBL document CHEMBL4196089, “Design, synthesis, biological evaluation and in vivo testing of dual phosphodiesterase 5 (PDE5) and histone deacetylase 6 (HDAC6)-selective inhibitors for the treatment of Alzheimer's disease” (Eur J Med Chem, 2018):

Legend:
[1] = biological target: T1, Histone deacetylase 1 (Homo sapiens, UniProt Q13547); assay: Inhibition of full length human recombinant C-terminal FLAG/His-tagged HDAC1 expressed in baculovirus infected sf9 cells using fluorogenic HDAC substrate 3 after 30 mins by fluorescence assay
T1 sequence (Q13547 whole entry, the tested form may be a part): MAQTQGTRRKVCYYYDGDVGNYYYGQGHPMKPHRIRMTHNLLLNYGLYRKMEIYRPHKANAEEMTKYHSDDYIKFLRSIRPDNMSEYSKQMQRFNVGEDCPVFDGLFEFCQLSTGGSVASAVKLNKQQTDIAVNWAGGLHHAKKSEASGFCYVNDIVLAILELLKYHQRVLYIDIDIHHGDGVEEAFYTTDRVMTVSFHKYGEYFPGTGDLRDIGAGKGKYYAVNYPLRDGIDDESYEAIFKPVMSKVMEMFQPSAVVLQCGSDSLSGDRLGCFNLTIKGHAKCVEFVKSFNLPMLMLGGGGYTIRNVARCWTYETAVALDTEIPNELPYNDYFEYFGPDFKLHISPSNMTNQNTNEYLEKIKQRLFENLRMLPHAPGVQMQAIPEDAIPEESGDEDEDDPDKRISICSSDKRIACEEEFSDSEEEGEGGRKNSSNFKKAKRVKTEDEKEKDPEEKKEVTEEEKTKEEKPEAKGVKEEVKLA

[2] = biological target: Histone deacetylase 3/Nuclear receptor corepressor 2 (HDAC3/NCoR2) (Homo sapiens, UniProt O15379); assay: Inhibition of full length human recombinant C-terminal His-tagged HDAC3/N-terminal GST-tagged NCOR2 (95 to 489 residues) expressed in baculovirus infected sf9 cells using fluorogenic HDAC substrate 3 after 30 mins by fluorescence assay
[3] = biological target: T2, Protein deacetylase HDAC6 (Homo sapiens, UniProt Q9UBN7); assay: Inhibition of full length human recombinant N-terminal GST-tagged HDAC6 expressed in baculovirus infected sf9 cells using fluorogenic HDAC substrate 3 after 30 mins by fluorescence assay
T2 sequence (Q9UBN7 whole entry): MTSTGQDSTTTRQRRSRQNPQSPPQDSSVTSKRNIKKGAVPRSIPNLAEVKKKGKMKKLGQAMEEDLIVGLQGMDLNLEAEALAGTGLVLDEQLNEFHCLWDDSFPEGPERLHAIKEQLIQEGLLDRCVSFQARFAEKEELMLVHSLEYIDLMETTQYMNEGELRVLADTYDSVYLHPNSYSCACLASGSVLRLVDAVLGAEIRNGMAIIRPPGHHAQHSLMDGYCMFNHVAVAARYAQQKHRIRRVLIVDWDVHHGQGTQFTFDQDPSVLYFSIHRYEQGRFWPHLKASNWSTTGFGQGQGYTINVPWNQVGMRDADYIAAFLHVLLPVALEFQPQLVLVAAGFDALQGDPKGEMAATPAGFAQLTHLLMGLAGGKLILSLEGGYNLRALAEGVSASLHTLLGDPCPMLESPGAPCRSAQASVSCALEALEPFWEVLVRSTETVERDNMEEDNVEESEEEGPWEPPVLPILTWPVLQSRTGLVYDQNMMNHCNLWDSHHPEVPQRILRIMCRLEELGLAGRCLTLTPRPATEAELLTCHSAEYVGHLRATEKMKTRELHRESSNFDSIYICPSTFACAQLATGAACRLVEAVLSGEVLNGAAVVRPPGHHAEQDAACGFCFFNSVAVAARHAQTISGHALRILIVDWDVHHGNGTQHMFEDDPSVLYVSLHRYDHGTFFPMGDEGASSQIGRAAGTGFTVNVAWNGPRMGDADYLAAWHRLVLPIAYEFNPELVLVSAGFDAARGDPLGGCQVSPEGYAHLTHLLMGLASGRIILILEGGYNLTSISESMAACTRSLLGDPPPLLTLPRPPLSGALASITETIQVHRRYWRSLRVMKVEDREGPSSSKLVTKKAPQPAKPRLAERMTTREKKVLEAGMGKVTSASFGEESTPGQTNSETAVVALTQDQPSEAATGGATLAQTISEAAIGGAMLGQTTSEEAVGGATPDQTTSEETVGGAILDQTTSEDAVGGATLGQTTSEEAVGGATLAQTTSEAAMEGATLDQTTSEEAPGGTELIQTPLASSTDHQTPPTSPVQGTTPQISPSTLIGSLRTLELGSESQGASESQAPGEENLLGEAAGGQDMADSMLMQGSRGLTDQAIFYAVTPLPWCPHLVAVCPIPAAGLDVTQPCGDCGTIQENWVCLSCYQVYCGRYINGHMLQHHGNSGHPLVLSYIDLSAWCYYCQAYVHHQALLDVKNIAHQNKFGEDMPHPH

[4] = biological target: T1, Histone deacetylase 1; assay: Inhibition of full length human recombinant C-terminal FLAG/His-tagged HDAC1 expressed in baculovirus infected sf9 cells using fluorogenic HDAC substrate 3 after 4 hrs fluorescence assay
[5] = biological target: T1, Histone deacetylase 1; assay: Inhibition of full length human recombinant C-terminal FLAG/His-tagged HDAC1 expressed in baculovirus infected sf9 cells assessed residence time preincubated fopr 2 hrs followed by dilution and subsequent fluorogenic HDAC substrate 3 addition measured at 2 mins time interval by fluorescence based jump dilution assay
[6] = Inhibition of class-1 HDAC in human SH-SY5Y cells assessed as induction of AcH3K9 level at 160 nM after 2 hrs by AlphaLISA assay; type: cell-based; details: 0.16 µM
[7] = biological target: Protein deacetylase HDAC6 (Mus musculus) (UniProt Q9Z2V5); assay: Inhibition of HDAC6 in Tg2576 mouse primary neurons assessed as reduction in human APP protein level at 100 nM treated for 2 days measured at 24 hrs post last dose by Western blot analysis relative to control
Sequence of Protein deacetylase HDAC6 (Mus musculus) (Q9Z2V5 whole entry): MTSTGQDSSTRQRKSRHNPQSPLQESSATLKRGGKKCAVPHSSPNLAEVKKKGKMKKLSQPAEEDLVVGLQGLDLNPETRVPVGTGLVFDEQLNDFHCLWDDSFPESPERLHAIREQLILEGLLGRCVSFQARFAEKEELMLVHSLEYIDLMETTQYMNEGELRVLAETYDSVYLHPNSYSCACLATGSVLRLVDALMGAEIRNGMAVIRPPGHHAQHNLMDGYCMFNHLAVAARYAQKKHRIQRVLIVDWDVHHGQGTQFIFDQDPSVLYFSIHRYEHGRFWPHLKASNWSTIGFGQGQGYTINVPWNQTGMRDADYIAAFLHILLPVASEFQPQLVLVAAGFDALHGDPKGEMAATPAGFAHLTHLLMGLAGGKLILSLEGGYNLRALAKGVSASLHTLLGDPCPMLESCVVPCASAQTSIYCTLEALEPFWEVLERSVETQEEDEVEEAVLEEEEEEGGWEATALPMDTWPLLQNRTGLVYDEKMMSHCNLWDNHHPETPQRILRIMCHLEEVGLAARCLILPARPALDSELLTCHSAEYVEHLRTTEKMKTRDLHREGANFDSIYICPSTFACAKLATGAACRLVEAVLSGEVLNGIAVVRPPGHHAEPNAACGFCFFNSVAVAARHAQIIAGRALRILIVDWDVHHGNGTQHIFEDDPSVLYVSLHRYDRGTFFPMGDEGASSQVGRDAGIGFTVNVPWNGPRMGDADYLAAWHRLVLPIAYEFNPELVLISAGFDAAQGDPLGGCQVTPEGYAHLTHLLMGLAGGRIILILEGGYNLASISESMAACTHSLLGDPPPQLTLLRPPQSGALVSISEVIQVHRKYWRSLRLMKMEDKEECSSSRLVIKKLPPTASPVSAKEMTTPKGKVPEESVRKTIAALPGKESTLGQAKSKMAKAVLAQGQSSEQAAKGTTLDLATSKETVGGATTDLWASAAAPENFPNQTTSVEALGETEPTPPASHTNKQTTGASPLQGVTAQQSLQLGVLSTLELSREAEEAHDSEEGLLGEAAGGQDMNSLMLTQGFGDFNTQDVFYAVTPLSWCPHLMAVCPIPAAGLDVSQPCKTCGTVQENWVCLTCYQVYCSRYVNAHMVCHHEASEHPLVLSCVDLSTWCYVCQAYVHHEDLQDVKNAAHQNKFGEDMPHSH

[8] = biological target: Protein deacetylase HDAC6 (Mus musculus) (UniProt Q9Z2V5); assay: Inhibition of HDAC6 in Tg2576 mouse primary neurons assessed as reduction in phosphorylated tau protein level at 100 nM treated for 2 days measured at 24 hrs post last dose by Western blot analysis relative to control
[9] = Cytotoxicity against Tg2576 mouse primary neurons after 72 hrs by ATP luminescence assay; type: cell-based, Neuron; details: read-out: LC50
[10] = biological target: CYP1A2 (Homo sapiens, UniProt P05177); assay: Inhibition of CYP1A2 in human liver microsomes at 10 uM after 10 mins in presence of NADPH by LC-MS/MS analysis relative to control; type: ADME
Sequence of CYP1A2 (P05177 whole entry): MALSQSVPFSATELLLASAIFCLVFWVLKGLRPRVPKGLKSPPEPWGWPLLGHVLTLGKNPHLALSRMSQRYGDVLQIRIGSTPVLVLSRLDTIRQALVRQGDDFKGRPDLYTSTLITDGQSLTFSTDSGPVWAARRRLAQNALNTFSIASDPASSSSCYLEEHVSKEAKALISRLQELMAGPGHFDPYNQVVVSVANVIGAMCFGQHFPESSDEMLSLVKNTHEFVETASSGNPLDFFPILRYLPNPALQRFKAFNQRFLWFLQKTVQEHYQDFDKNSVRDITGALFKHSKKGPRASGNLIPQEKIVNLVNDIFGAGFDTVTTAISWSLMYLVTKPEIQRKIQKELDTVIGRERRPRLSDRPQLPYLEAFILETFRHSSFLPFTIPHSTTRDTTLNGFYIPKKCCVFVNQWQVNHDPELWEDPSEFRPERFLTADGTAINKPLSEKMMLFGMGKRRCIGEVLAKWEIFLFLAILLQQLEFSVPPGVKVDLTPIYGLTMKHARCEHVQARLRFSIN

[11] = biological target: CYP2C9 (Homo sapiens, UniProt P11712); assay: Inhibition of CYP2C9 in human liver microsomes at 10 uM after 10 mins in presence of NADPH by LC-MS/MS analysis relative to control; type: ADME
Sequence of CYP2C9 (P11712 whole entry): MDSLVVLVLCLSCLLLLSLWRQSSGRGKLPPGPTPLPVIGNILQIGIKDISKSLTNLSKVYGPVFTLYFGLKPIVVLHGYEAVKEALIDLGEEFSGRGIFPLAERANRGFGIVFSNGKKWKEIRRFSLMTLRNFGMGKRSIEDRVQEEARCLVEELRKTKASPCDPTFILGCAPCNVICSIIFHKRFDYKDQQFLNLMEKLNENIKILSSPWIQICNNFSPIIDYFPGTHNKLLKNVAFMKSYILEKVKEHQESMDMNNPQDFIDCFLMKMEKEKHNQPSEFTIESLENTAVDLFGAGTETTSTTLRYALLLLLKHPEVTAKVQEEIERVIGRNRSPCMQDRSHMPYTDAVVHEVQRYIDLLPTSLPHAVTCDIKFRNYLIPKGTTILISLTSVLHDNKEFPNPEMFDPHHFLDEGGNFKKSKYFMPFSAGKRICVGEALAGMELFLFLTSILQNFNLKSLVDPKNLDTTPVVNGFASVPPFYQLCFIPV

[12] = biological target: CYP2D6 (Homo sapiens, UniProt P10635); assay: Inhibition of CYP2D6 in human liver microsomes at 10 uM after 10 mins in presence of NADPH by LC-MS/MS analysis relative to control; type: ADME
Sequence of CYP2D6 (P10635 whole entry): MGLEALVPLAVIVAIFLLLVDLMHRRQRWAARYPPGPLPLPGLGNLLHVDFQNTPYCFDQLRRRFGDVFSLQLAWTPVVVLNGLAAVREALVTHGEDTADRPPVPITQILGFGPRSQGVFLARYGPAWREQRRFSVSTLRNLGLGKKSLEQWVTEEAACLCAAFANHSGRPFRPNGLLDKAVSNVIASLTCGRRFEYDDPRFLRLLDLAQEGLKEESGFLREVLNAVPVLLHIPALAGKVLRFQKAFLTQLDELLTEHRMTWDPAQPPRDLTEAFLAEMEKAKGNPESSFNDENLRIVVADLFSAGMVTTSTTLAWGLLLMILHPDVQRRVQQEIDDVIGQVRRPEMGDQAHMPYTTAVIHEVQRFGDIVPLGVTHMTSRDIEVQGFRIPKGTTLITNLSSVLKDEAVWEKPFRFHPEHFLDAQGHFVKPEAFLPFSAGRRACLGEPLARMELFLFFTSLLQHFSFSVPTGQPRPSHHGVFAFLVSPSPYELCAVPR

[13] = biological target: CYP3A4 (Homo sapiens, UniProt P08684); assay: Inhibition of CYP3A4 in human liver microsomes at 10 uM after 10 mins in presence of NADPH by LC-MS/MS analysis relative to control; type: ADME
Sequence of CYP3A4 (P08684 whole entry): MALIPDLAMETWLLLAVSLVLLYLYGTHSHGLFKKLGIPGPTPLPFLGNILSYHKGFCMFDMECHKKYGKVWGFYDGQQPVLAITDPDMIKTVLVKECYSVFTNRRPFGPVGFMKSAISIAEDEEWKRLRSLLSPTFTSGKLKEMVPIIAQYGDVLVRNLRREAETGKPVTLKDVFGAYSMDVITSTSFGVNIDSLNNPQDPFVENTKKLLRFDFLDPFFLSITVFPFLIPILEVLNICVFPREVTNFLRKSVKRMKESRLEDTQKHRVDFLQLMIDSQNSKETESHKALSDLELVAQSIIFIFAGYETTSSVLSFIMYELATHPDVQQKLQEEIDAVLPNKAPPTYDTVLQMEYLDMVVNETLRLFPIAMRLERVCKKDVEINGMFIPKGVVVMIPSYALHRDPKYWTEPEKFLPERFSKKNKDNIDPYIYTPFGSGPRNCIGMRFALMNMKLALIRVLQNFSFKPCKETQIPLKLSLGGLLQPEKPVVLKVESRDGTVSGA

[14] = Half life in human liver microsomes at 1 uM preincubated for 10 mins followed by NADPH addition measured up to 60 mins by LC-MS/MS analysis; type: ADME, microsome
[15] = Half life in mouse liver microsomes at 1 uM preincubated for 10 mins followed by NADPH addition measured up to 60 mins by LC-MS/MS analysis; type: ADME, microsome
[16] = biological target: Cone cGMP-specific 3',5'-cyclic phosphodiesterase subunit alpha' (Homo sapiens, UniProt P51160); assay: Inhibition of PDE6C (unknown origin) using FAM-cGMP as substrate by fluorescence assay
Sequence of Cone cGMP-specific 3',5'-cyclic phosphodiesterase subunit alpha' (P51160 whole entry): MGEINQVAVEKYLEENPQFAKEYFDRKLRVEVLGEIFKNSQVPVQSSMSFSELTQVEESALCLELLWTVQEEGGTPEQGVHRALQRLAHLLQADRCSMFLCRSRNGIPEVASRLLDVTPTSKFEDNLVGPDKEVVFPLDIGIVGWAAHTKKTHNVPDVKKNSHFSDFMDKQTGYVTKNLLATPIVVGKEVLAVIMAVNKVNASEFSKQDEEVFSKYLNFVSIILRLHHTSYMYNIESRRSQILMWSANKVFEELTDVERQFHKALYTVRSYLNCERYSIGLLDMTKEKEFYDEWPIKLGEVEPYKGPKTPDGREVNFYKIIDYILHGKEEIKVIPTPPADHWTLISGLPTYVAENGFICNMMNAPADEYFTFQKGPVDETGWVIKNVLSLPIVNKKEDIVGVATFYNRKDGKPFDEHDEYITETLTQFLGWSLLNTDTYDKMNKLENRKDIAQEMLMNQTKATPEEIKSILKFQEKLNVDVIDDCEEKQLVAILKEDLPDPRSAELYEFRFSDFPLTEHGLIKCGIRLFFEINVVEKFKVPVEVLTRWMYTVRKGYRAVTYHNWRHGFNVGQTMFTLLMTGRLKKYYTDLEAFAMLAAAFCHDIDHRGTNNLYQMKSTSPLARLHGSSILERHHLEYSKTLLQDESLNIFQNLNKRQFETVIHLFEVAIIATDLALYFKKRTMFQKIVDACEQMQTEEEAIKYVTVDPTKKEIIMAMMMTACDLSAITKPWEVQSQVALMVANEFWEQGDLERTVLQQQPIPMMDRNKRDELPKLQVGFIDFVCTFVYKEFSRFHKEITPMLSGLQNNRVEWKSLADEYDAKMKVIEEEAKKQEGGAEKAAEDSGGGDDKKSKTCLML

[17] = biological target: Histone deacetylase 8 (Homo sapiens, UniProt Q9BY41); assay: Inhibition of human HDAC8
Sequence of Histone deacetylase 8 (Q9BY41 whole entry): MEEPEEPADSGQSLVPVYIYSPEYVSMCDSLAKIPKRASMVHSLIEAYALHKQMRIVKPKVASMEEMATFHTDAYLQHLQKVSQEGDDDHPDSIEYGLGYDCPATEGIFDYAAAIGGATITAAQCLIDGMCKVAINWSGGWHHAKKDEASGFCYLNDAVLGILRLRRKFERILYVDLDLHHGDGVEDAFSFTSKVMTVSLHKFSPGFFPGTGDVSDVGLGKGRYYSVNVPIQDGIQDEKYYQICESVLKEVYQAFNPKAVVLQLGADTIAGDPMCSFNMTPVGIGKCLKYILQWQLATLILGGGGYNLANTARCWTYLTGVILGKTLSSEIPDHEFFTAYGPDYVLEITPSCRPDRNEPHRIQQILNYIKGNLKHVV

[18] = biological target: Histone deacetylase 5 (Homo sapiens, UniProt Q9UQL6); assay: Inhibition of human HDAC5
[19] = biological target: Histone deacetylase 9 (Homo sapiens, UniProt Q9UKV0); assay: Inhibition of human HDAC9
[20] = system: Mus musculus; assay: In vivo inhibition of PDE5 in mouse assessed as increase in pCREB-Ser133 level in hippocampus at 40 mg/kg, ip measured after 1 hr by Western blot analysis; type: functional; design: scale not given: the % may be the effect or the level left
[21] = cells; details: Homo sapiens, SH-SY5Y, 2 h, read-out: FC

SMILES: CCCc1nn(C)c2c(=O)[nH]c(-c3cc(Cc4ccc(C(=O)NO)s4)ccc3OCC)nc12
- IC50 [1]: 345 nM
- IC50 [2]: 2090 nM
- IC50 [3]: 15 nM
- IC50 [4]: 841 nM
- residence time [5]: 15.5 min
- inhibition (INH) [6]: Active
- inhibition [7]: 55%
- inhibition [8]: 30%
- CC50 at 72 h [9]: 46300 nM
- inhibition at 10 min, 10 µM [10]: < 50%
- inhibition at 10 min, 10 µM [11]: < 50%
- inhibition at 10 min, 10 µM [12]: < 50%
- inhibition at 10 min, 10 µM [13]: 23.4%
- half-life at 1 µM [14]: 32.7 min
- half-life at 1 µM [15]: 5.2 min
- IC50 [16]: 1.4 nM
- IC50 [17]: > 10000 nM
- IC50 [18]: > 10000 nM
- IC50 [19]: > 10000 nM
- Activity [20]: 48%
- fold induction at 0.5 µM [21]: 8.2
